Earlier results in patent publication USRE39480E1, “Chromium/biotin treatment of type II diabetes” (Nutrition 21, Inc., priority 1997, dated 2007).

Tests used:
Type I diabetics = conditions: daily oral dose of 16 mg; insulin injections temporarily discontinued
diabetic KK mice = conditions: high-dose oral or parenteral biotin
[1] = oral biotin intakes of up to 200 mg daily
[2] = tested on: rats made diabetic by injection with streptozotocin; conditions: high-dose oral or parenteral biotin
[3] = tested on: pre-diabetic Otsuka Long-Evans Tokushima Fatty rats; conditions: high-dose oral or parenteral biotin
[4] = tested on: poorly-controlled type II diabetics; conditions: 3 mg biotin three times per day
Type II diabetes = conditions: doses which provide between 50 and 500 μg of chromium
[5] = tested on: individuals with Type II diabetes; conditions: 1,000 μg chromium per day as chromic tripicolinate

Compound | fasting plasma glucose levels (Type I diabetics) | oral glucose tolerance (diabetic KK mice) | side effects or toxicities [1] | oral glucose tolerance [2] | oral glucose tolerance [3] | fasting insulin levels [4] | glucose levels [4] | pancreatic beta cell function [4] | change in glycosylated hemoglobin (Type II diabetes) | glycosylated hemoglobin value obtained after chromic tripicolinate treatment (Type II diabetes; still within the diabetic range) | decrease in glycosylated hemoglobin [5]
O=C(O)CCCC[C@@H]1SC[C@@H]2NC(=O)N[C@@H]21 [biotin] | lowered fasting plasma glucose levels | improve oral glucose tolerance | no side effects or toxicities were noted | improve oral glucose tolerance | improve oral glucose tolerance | did not decline | sharp decline | improved pancreatic beta cell function | – | – | –
chromic tripicolinate | – | – | – | – | – | – | – | – | small decrease | 10.4% | 30%
